From patent publication US8901307B2, “Chemical compounds 251” (AstraZeneca AB, priority 2008, dated 2014)
Structures can show the parent of a compound that is named as a salt. Where two headings read alike, the source gives them in different places.

What was measured:
human His-PIM1 [2-313] = biological target: T1, human His-PIM1 [2-313] (Homo sapiens, UniProt P11309); assay: PIM1 in-vitro mobility shift assay (Caliper LC3000, FL-Ahx-Bad phosphorylation); assay type: biochemical; conditions: 1.5 h, read-out: PIM1 % I at 0.3 uM
T1 construct: purified human His-PIM1 [2-313] enzyme; His (N); purchased University of Dundee, Scotland; host or cells: baculovirus system
T1 sequence (P11309 2-313): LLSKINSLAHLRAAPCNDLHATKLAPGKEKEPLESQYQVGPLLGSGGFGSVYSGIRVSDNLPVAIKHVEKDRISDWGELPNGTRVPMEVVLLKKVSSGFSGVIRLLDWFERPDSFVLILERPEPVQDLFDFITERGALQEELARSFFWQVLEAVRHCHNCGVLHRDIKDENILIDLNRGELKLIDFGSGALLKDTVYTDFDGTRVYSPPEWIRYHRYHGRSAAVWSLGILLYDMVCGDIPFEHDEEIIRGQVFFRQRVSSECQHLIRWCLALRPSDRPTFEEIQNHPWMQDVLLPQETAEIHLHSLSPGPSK
Procedure, shortened: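 Compound preincubated 20 min at 25 °C with 2.4 nM PIM1, 3.6 µM FL-Ahx-Bad peptide and 240 µM ATP (1.2× mix concentrations). Reaction started with 24 mM MgCl2 mix, run 90 min at 25 °C, EDTA-stopped. Phospho/unphospho peptide separated by microfluidic mobility shift; percent inhibition from ratiometric turnover.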

human His-PIM2 [23-299] = biological target: T2, human His-PIM2 [23-299] (Homo sapiens, UniProt Q9P1W9); assay: PIM2 in-vitro mobility shift assay (Caliper LC3000, FL-Ahx-Bad phosphorylation); assay type: biochemical; conditions: 1.5 h; percent inhibition at 0.3 uM compound; read-out: PIM2 % I at 0.3 uM
T2 construct: purified human His-PIM2 [23-299] enzyme; His (N); host or cells: E. coli
T2 sequence (Q9P1W9 23-299): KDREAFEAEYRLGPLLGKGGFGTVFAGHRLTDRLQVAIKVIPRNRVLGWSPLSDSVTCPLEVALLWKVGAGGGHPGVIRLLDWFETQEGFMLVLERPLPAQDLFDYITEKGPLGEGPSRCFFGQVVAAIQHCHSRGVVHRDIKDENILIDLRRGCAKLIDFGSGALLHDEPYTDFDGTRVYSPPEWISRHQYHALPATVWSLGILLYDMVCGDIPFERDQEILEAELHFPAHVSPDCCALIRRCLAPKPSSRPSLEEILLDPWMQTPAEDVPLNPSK

[1] = percent inhibition at 0.3 uM compound

Structure (SMILES) | inhibition at 0.3 µM (human His-PIM1 [2-313]; [1]) [%] | inhibition at 0.3 µM (human His-PIM2 [23-299]) [%] | inhibition at 0.3 µM (human His-PIM1 [2-313]) [%]
COc1cccc(/C=C2\SC(=O)NC2=O)c1N1CCC[C@@H](N)C1 [Example 122E, (R,Z)-5-(2-(3-aminopiperidin-1-yl)-3-methoxybenzylidene)thiazolidine-2,4-dione hydrochloride] | > 95 | > 95 | –
N[C@@H]1CCCN(c2c(Br)cccc2/C=C2\SC(=O)NC2=O)C1 [Example 122F, (R,Z)-5-(2-(3-aminopiperidin-1-yl)-3-bromobenzylidene)thiazolidine-2,4-dione hydrochloride] | – | > 95 | > 95
N[C@@H]1CCN(c2c(Cl)cccc2/C=C2\SC(=O)NC2=O)C1 [Example 122G, (R,Z)-5-(2-(3-aminopyrrolidin-1-yl)-3-chlorobenzylidene)thiazolidin-2,4-dione hydrochloride] | > 95 | 92.1 | –
N[C@H]1CCN(c2c(Br)cccc2/C=C2\SC(=O)NC2=O)C1 [Example 122H, (S,Z)-5-(2-(3-aminopyrrolidin-1-yl)-3-bromobenzylidene)thiazolidine-2,4-dione hydrochloride] | > 95 | > 95 | –
CCOc1cccc(/C=C2\SC(=O)NC2=O)c1N1CCC[C@@H](N)C1 [Example 122I, (R,Z)-5-(2-(3-aminopiperidin-1-yl)-3-ethoxybenzylidene)thiazolidine-2,4-dione hydrochloride] | > 95 | > 95 | –
N[C@@H]1CCCN(c2c(/C=C3\SC(=O)NC3=O)cccc2OCC2CCCCC2)C1 [Example 122K, (R,Z)-5-(2-(3-aminopiperidin-1-yl)-3-(cyclohexylmethoxy)benzylidene)thiazolidine-2,4-dione hydrochloride] | > 95 | > 95 | –
N[C@@H]1CCCN(c2c(/C=C3\SC(=O)NC3=O)cccc2OC2CCCCC2)C1 [Example 122L, hydrochloride] | > 95 | > 95 | –
O=C1NC(=O)/C(=C/c2cccc(Cl)c2N2CCCNCC2)S1 [Example 122N, (Z)-5-(3-chloro-2-(1,4-diazepan-1-yl)benzylidene)thiazolidine-2,4-dione hydrochloride] | > 95 | > 95 | –
CC(C)Oc1cccc(/C=C2\SC(=O)NC2=O)c1N1CCC[C@@H](N)C1 [Example 122O, (R,Z)-5-(2-(3-aminopiperidin-1-yl)-3-isopropoxybenzylidene)thiazolidine-2,4-dione hydrochloride] | > 95 | > 95 | –

Now from value to molecule, other results behind:

inhibition at 0.3 µM (human His-PIM1 [2-313]; [1]) [%] | inhibition at 0.3 µM (human His-PIM2 [23-299]) [%] | Structure (SMILES) | inhibition at 0.3 µM (human His-PIM1 [2-313]) [%]
> 95 | > 95 | CC(C)Oc1cccc(/C=C2\SC(=O)NC2=O)c1N1CC[C@H](N)C1 [Example 122P, (S,Z)-5-(2-(3-aminopyrrolidin-1-yl)-3-isopropoxybenzylidene)thiazolidine-2,4-dione hydrochloride] | –
> 95 | > 95 | CCOc1cccc(/C=C2\SC(=O)NC2=O)c1N1CC[C@H](N)C1 [Example 122Q, (S,Z)-5-(2-(3-aminopyrrolidin-1-yl)-3-ethoxybenzylidene)thiazolidine-2,4-dione hydrochloride] | –
> 95 | 89.6 | NCc1ccc(CN[C@@H]2CCCN(c3c(Cl)cccc3/C=C3\SC(=O)NC3=O)C2)cc1 [Example 122R, (R,Z)-5-(2-(3-(4-(aminomethyl)benzylamino)piperidin-1-yl)-3-chlorobenzylidene)thiazolidine-2,4-dione hydrochloride] | –
> 95 | > 95 | CNCCN[C@@H]1CCCN(c2c(Cl)cccc2/C=C2\SC(=O)NC2=O)C1 [Example 122S, (R,Z)-5-(3-chloro-2-(3-(2-(methylamino)ethylamino)piperidin-1-yl)benzylidene)thiazolidine-2,4-dione hydrochloride] | –
